Reference: patent US10302644B2, “Compositions and methods for treating multiple myeloma” (Dana-Farber Cancer Institute, Inc., priority 2014, dated 2019)

Assays:
[1] = tested on: LC3-II, Bim, PARP, MDM2, XIAP, cIAP, p-p70S6K; assay: Immunoblotting/qPCR of autophagy and apoptosis proteins in MM cells; assay type: cell-based; details: MM.1S cells, 2.5 μM, 48 h
Protocol: (§1) MM cells were harvested and lysed using RIPA-lysis buffer (Boston Bioproducts, Ashland, Mass.) containing 5 mM EDTA, 5 mM NaF, 2 mM Na3VO4, 1 mM PMSF, 5 μg/ml leupeptin, and 5 μg/ml aprotinin. Nuclear proteins were extracted using “Nuclear Extraction Kit” (Affimetrix). After the determination of protein concentration using DC protein assay (Bio-Rad, Hercules, Calif.), β-mercaptoethanol (-ME) was added to the whole-cell lysates to a 2% final concentration. The whole cell lysates or nuclear extracts were subjected to SDS-PAGE, transferred to nitrocellulose membranes (Bio-Rad, Hercules, Calif.) or polyvinylidene fluoride membranes (Millipore, Billerica, Mass.), and immunoblotted with indicated Abs. Silver staining was carried out using “SilverQuest Staining Kit®” (Invitrogen), according to manufacturer's protocol.
(§2) RNA was extracted using Trizol (Invitrogen) and quantified by a Nanodrop spectrophotometer (Labtech). Specifically, 5×10^6 cells were pelleted, washed with cold PBS, and resuspended in 1 mL Trizol. They were then incubated with 1-Bromo-3-chloropropane (Sigma), washed first with Isopropyl alcohol and then with 75% Ethanol, and resuspended in Nuclease Free-water (Invitrogen). After quantification, 2000 ng of RNA was used to synthesize cDNA via the Superscript II First strand synthesis Kit (Invitrogen), according to the manufacturer's instructions. To evaluate the expression levels of TP53RK, BCL2L11, MYC, Bim, E2F1, TP53, IKZF1, IKZF3, RRM1, p18CDKN2C, PSMB5, PSMB7, PSMA3 and GAPDH, quantitative real time PCR (QRT-PCR) was performed using SYBR GREEN PCR Master Mix (Applied Biosystem), after optimization of the primer conditions. cDNAs were diluted 1:100 or 1:1000 and amplified in a 20 μL reaction. Primers were used at 200 nM or 400 nM concentration. Thermal cycling conditions were: 10 minutes at 95° C., 40 cycles at 95° C. for 15 seconds, followed by 1 minute at 60° C. Real-time quantitative PCR was performed on ABI Prism 7300 Sequence Detection System (Applied Biosystems). Data were analyzed using the delta delta Ct method. GAPDH was used as an invariant control.

[2] = tested on: p53 target genes; assay: GEP analysis of patient MM cells before and after lenalidomide treatment; assay type: in vivo, human; details: patient MM cells treated with Len; *p < 0.05
Excerpt: Expression data for plasma cells from healthy donors, monoclonal gammopathy of undetermined significance (MGUS), and smoldering myeloma (SMM) were derived from GSE5900 dataset, while expression data from normal plasma cells and 65 MM patients were obtained from GSE4452 dataset, using expression profiling on Affymetrix GeneChip (t test, unpaired, equal variance). […] Data were then normalized and analyzed using D-chip software, seeking statistically significant differences among groups or in p53-target gene expression. Statistical significance was determined by Student t test. The minimal level of significance was P<0.05. […] Gene set enrichment analysis (GSEA) was performed as previously described (2) (GSEA v2.0 at http://www.broad.mit.edu/gsea) using gene set as permutation type, as well as 1,000 permutations and signal to noise as metrics for ranking genes.

[3] = tested on: E2F1; assay: E2F1 DNA binding activity (EMSA), protein and mRNA; assay type: cell-based; details: MM cells
Protocol: MM cells were harvested and lysed using RIPA-lysis buffer (Boston Bioproducts, Ashland, Mass.) containing 5 mM EDTA, 5 mM NaF, 2 mM Na3VO4, 1 mM PMSF, 5 μg/ml leupeptin, and 5 μg/ml aprotinin. Nuclear proteins were extracted using “Nuclear Extraction Kit” (Affimetrix). After the determination of protein concentration using DC protein assay (Bio-Rad, Hercules, Calif.), β-mercaptoethanol (-ME) was added to the whole-cell lysates to a 2% final concentration. […]
RNA was extracted using Trizol (Invitrogen) and quantified by a Nanodrop spectrophotometer (Labtech). […] After quantification, 2000 ng of RNA was used to synthesize cDNA via the Superscript II First strand synthesis Kit (Invitrogen), according to the manufacturer's instructions. To evaluate the expression levels of TP53RK, BCL2L11, MYC, Bim, E2F1, TP53, IKZF1, IKZF3, RRM1, p18CDKN2C, PSMB5, PSMB7, PSMA3 and GAPDH, quantitative real time PCR (QRT-PCR) was performed using SYBR GREEN PCR Master Mix (Applied Biosystem), after optimization of the primer conditions. cDNAs were diluted 1:100 or 1:1000 and amplified in a 20 μL reaction. […] Real-time quantitative PCR was performed on ABI Prism 7300 Sequence Detection System (Applied Biosystems). Data were analyzed using the delta delta Ct method. […]

[4] = tested on: p53; assay: p53 DNA binding activity assay; assay type: cell-based; details: MM.1S and H929 cells, 48 h
Protocol: E2F1 DNA binding activity was assessed by electrophoretic mobility shift assay (EMSA) using “EMSA Gel Shift Kit®” from Affimetrix (Santa Clara, Calif.), and p53 DNA binding activity was performed using “p53 Transcription Factor Assay Kit®” from Cayman Chemical (Ann Arbor, Mich.). Experiments were carried out according to manufacturer's protocols.

[5] = tested on: hTERT; assay: hTERT expression and telomerase activity (TeloTAGGG Telomerase PCR ELISA); assay type: cell-based; details: MM.1S cells and H929 cells
Protocol: as §1
Telomerase activity in MM.1S and H929 cells was assessed by “TeloTAGGG Telomerase PCR ELISA®” from Roche Applied Science (Mannheim, Germany).

[6] = tested on: hTERT; assay: Comparative hTERT expression analysis in matched MM patient samples (GSE8546); assay type: in vivo, human; details: matched samples before and after Len, GSE8546 dataset
[7] = tested on: MM cells; assay: Growth inhibition assay (MTT) / viable cell count (Trypan-blue); assay type: cell-based
Protocol: Cell growth was assessed by measuring 3-(4,5-dimethylthiazol-2-yl)-2,5-diphenyl […] bromide (MTT, Chemicon International, Temecula, Calif.) dye absorbance. Cells were pulsed with 10 μl of 5 mg/ml MTT to each well for the last 4 h of 48 h and/or 72 h cultures, followed by 100 μl isopropanol containing 0.04N HCl. Absorbance was measured at 570/630 nm using a spectrophotometer (Molecular Devices Corp., Sunnyvale Calif.).

[8] = tested on: Chk1, ATM, ATR, Chk2; assay: Immunoblotting of DNA damage kinase phosphorylation; assay type: cell-based; details: MM.1S cells, 48 h
Protocol: as §1

[9] = tested on: p53; assay: Immunoblotting of p53 and phosphorylated p53 in MM cells; assay type: cell-based
Protocol: as §1

[10] = tested on: RRM1, p18CDKN2C; assay: RRM1 and p18CDKN2C expression (RT-qPCR, Western blot); assay type: cell-based; details: H929 cells
Protocol: as §1, §2

**Q.** For `Nc1cccc2c1CN(C1CCC(=O)NC1=O)C2=O` (stereo not drawn) [Len, lenalidomide], which LC3-II level [1] is on record?
**A.** upregulation

**Q.** And the BID expression change [2]?
**A.** ↓

**Q.** And the CCNA1 expression change [2]?
**A.** ↓

**Q.** What about the CCNA2 expression change [2] of the same molecule?
**A.** ↓

**Q.** And the CCNE2 expression change [2]?
**A.** ↓

**Q.** And the CCNG1 expression change [2]?
**A.** ↓

**Q.** What about the CCR5 expression change [2] of the same molecule?
**A.** ↓

**Q.** And the CDC25B expression change [2]?
**A.** ↑

**Q.** What about the CDKN3 expression change [2] of the same molecule?
**A.** ↓

**Q.** What about the CTSL2 expression change [2] of the same molecule?
**A.** ↑

**Q.** What about the CUL1 expression change [2] of the same molecule?
**A.** ↓

**Q.** What about the DDX3X expression change [2] of the same molecule?
**A.** ↑*

**Q.** What about the DDX11 expression change [2] of the same molecule?
**A.** ↓

**Q.** What about the DLEC1 expression change [2] of the same molecule?
**A.** ↓

**Q.** And the FGFR3 expression change [2]?
**A.** ↓

**Q.** And the HLA-C expression change [2]?
**A.** ↑

**Q.** What about the ILR6 expression change [2] of the same molecule?
**A.** ↓

**Q.** And the ITM2B expression change [2]?
**A.** ↑*

**Q.** What about the JUND expression change [2] of the same molecule?
**A.** ↓

**Q.** What about the KRAS expression change [2] of the same molecule?
**A.** ↑*

**Q.** What about the LAPTM5 expression change [2] of the same molecule?
**A.** ↑

**Q.** And the MAP2K6 expression change [2]?
**A.** ↓*

**Q.** And the MKI67 expression change [2]?
**A.** ↓

**Q.** And the MSX1 expression change [2]?
**A.** ↓

**Q.** And the MYBL2 expression change [2]?
**A.** ↓*

**Q.** And the MYC expression change [2]?
**A.** ↓

**Q.** What about the RAD21 expression change [2] of the same molecule?
**A.** ↑

**Q.** What about the RAD51C expression change [2] of the same molecule?
**A.** ↓

**Q.** And the RHOH expression change [2]?
**A.** ↑*

**Q.** And the RRM1 expression change [2]?
**A.** ↓*

**Q.** And the RRM2 expression change [2]?
**A.** ↓*

**Q.** What about the SEC61A1 expression change [2] of the same molecule?
**A.** ↑*

**Q.** And the SMC4 expression change [2]?
**A.** ↑

**Q.** And the STAT3 expression change [2]?
**A.** ↑

**Q.** What about the TEAD3 expression change [2] of the same molecule?
**A.** ↓

**Q.** And the UBC expression change [2]?
**A.** ↑*

**Q.** And the XPC expression change [2]?
**A.** ↑

**Q.** And the ZNF330 expression change [2]?
**A.** ↓

**Q.** What about the E2F1 [3] of the same molecule?
**A.** increases

**Q.** What about the “p53 activity (p53 DNA binding)” value [4] of the same molecule?
**A.** block

**Q.** What about the hTERT expression [5] of the same molecule?
**A.** significantly inhibited

**Q.** And the “telomerase (hTERT) activity” value [5]?
**A.** significantly inhibited

**Q.** And the “hTERT levels in MM patient samples after treatment” value [6]?
**A.** lower

**Q.** What about the “drug-triggered growth inhibition in kinase-dead D163A TP53RK transfectants” value ([7]; H929 cells, 48 h) of the same molecule?
**A.** abrogated

**Q.** What about the “sensitivity of MM cell lines to drug” value ([7]; MM.1S and H929 cells with wt-p53 versus cell lines with mutant p53) of the same molecule?
**A.** more sensitive

**Q.** And the “drug-triggered cell death after CRBN knock-down” value ([7]; OPM2 cells (mutant p53) and H929 cells (wt-p53))?
**A.** only partially abrogates

**Q.** What about the “phosphorylation of ATM, ATR or Chk2” value [8] of the same molecule?
**A.** not

**Q.** What about the “phosphorylation of Chk1” value [8] of the same molecule?
**A.** inhibited

**Q.** What about the “p53 phosphorylation at Ser20 and Ser37” value ([9]; MM.1S cells, 2.5 μM, 48 h) of the same molecule?
**A.** no change

**Q.** What about the “phosphorylated (p-Ser15)-p53 and p53 levels” value ([9]; MM.1S cells, 2.5 μM, 48 h) of the same molecule?
**A.** downregulated

**Q.** What about the “Nut3-induced upregulation of p-p53 and p53” value ([9]; MM.1S cells, Len or Pom 2.5 μM with Nutlin-3a 0.5 μM, 48 h) of the same molecule?
**A.** inhibited

**Q.** What about the p-p53/p53 downregulation ([9]; nuclear extracts from MM.1S and H929 cell lines, patient MM cells) of the same molecule?
**A.** further confirmed

**Q.** And the RRM1 expression [10]?
**A.** downregulate

**Q.** And the p18CDKN2C expression [10]?
**A.** upregulate
